Assay results taken from publication PMC5418574, “Facile access to potent antiviral quinazoline heterocycles with fluorescence properties via merging metal-free domino reactions” (Nature Communications, 2017).
“And” between values parts separate entries of the source, which are not always exact repeats. Equal entries are not always repeated.

Columns and labels:
HCMV AD169-GFP = assay: HCMV GFP-based replication assay (automated GFP fluorometry); type: cell-based, human cytomegalovirus; conditions: for EC50: Human betaherpesvirus 5, AD169, read-out: HCMV EC50
Procedure: The measurement of antiviral activity was based on automated fluorometry using a green fluorescent protein (GFP)-expressing, recombinant HCMV (excitation 485 nm, emission 535 nm; see Supplementary Note 2, Supplementary Data 1 and Supplementary Fig. 4 for dose–response curves).
HCMV GFP‐based replication assay and cell proliferation assay. The replication of human cytomegalovirus (HCMV) was determined by an established HCMV GFP-based replication assay as carried out over a duration of approx. seven days (multi-round infection) using cultures of primary human foreskin fibroblasts (HFFs). HFFs were cultivated in 12-well plates for the infection with a GFP-expressing recombinant human cytomegalovirus (HCMV AD169-GFP) and a signal quantitation using automated GFP fluorometry as described before.2-4 All data represent mean values of determinations in quadruplicate (HCMV infections performed in duplicate, GFP measurements of total cell lysates performed in duplicate). Processing and evaluation of data was performed by the use of Excel (means and standard deviations, see Supplementary Figure 4 and Supplementary Data 1). […]

[1] = trypan blue exclusion cytotoxicity assay; type: cell-based; conditions: human, primary HFFs (human foreskin fibroblasts), 0.2-100 μM for 3 days, n=6 (artesunic acid n=3)
Procedure: In addition, EC50 values were confirmed using non-GFP-expressing HCMV (strain AD169) by a classical plaque formation assay on HFFs (n=4), providing data consistent with the GFP-based data shown in Table 1, that is, compound 7h, 7.3±0.7 μM; compound 8, 0.3±0.0 μM; compound 9, 0.3±0.1 μM. Moreover, antiviral activity was clearly separated from putative cytotoxic effects because of the results obtained with a standard trypan blue exclusion assay. […] Consistent with these findings are results from a MTS-based cell proliferation assay, showing moderate or no antiproliferative effects on HFFs for all analysed compounds in concentrations up to 30 μM (see Supplementary Fig. 5 and Supplementary Methods). Thus, the new quinazolines and hybrid compounds can be regarded as selective, which is one of the most important aspects in drug design.
Cytotoxicity and Cell Proliferation Assays
Assays measuring distinct parameters of cytotoxicity and/or cell proliferation were performed as described earlier.7, 8 In brief, a trypan blue exclusion assay was performed with cultured cells seeded in 24-well plates and incubated with increasing concentrations of antiviral compounds (range of 0.2 μM to […]
before the percentage of viable cells was determined by microscopic counting (determination at least in triplicates). The cell proliferation assay (CellTiter 96 AQueous One Solution cell proliferation assay; Promega) was performed in a 96-well plate format after a 3-day treatment with compounds under standard conditions of measurement as described by the manufacturer. […]

primary HFFs = assay: confocal laser-scanning microscopy of cellular uptake of fluorescent compounds; type: cell-based, human; conditions: 1–10 μM, uninfected or HCMV-infected, 20 h incubation
Procedure: Figure 7 Microscopy-based visualization of cellular uptake of fluorescent quinazoline compounds. (a) Artesunic acid–quinazoline hybrids 8 and 9. (b–d) Compounds 7h, 7g and 9 were analysed for properties of fluorescence imaging using confocal laser-scanning microscopy. HFFs were cultivated in six-well plates on cover slips and were either directly incubated with compounds by addition to the culture media for 20 h (c) or were added after HCMV infection (b,d; compound addition at 50 h post infection, fixation and analysis of cells 20 h later; scale bar, 10 μm). The chosen concentrations were 10 μM for compounds 7h, 7g and 9, or 1 μM for compound 9 in panels 4, 9 (b), panels 5, 10 (c) and panels 6–10 (d), referring to the compounds' EC50 values of anti-HCMV activity (see Table 1). The depicted images are representative for three independent experiments. Lack of mycoplasm contamination was verified by routine 4,6-diamidino-2-phenylindole staining. General procedures of cell fixation, indirect immunofluorescence staining of proteins (d) and microscopic analysis have been described elsewhere.
When analysing primary HFFs, the fluorescent compounds 7g, 7h and 9 could nicely be depicted both in extracellular (transparent arrows) and intracellular localizations (filled arrows; Fig. 7b,c). […] A nonfluorescent artemisinin-derived control compound (Fig. 7c, panels 2 and 7; see also Supplementary Fig. 6), the DMSO panels (solvent controls) as well as the inspection of different excitation wavelengths of the confocal laser-scanning microscopy confirmed the specificity of signals and a lack of unwarranted cross-fluorescence. […] An indirect immunofluorescence counterstaining of viral and cellular proteins[36][37] led to the detection of nuclear markers, that is, the viral protein kinase pUL97 and cellular lamins type A/C (Fig. 7d, panels 4, 9, 14 or 5, 10, 15, respectively), in the context of extracellular and intracellular fluorescence signals of compounds 7h and 9 (Fig. 7d, panels 1–5 or 6–15, respectively). […]

| SMILES | EC50 (HCMV AD169-GFP) [µM] | CC50 at 3 days [1] [µM] | GFP signal, % of Inf./DMSO, MW (mean) (HCMV AD169-GFP; 0.01 µM) [%] | GFP signal, % of Inf./DMSO, single determination (raw data) (HCMV AD169-GFP; 0.01 µM) | GFP signal, % of Inf./DMSO, MW (mean) (HCMV AD169-GFP; 0.04 µM) [%] | GFP signal, % of Inf./DMSO, single determination (raw data) (HCMV AD169-GFP; 0.04 µM) | GFP signal, % of Inf./DMSO, MW (mean) (HCMV AD169-GFP; 0.12 µM) [%] | GFP signal, % of Inf./DMSO, single determination (raw data) (HCMV AD169-GFP; 0.12 µM) | GFP signal, % of Inf./DMSO, MW (mean) (HCMV AD169-GFP; 0.37 µM) [%] | GFP signal, % of Inf./DMSO, single determination (raw data) (HCMV AD169-GFP; 0.37 µM) | GFP signal, % of Inf./DMSO, MW (mean) (HCMV AD169-GFP; 1.1 µM) [%] | GFP signal, % of Inf./DMSO, single determination (raw data) (HCMV AD169-GFP; 1.1 µM) | GFP signal, % of Inf./DMSO, MW (mean) (HCMV AD169-GFP; 3.3 µM) [%] | GFP signal, % of Inf./DMSO, single determination (raw data) (HCMV AD169-GFP; 3.3 µM) | GFP signal, % of Inf./DMSO, MW (mean) (HCMV AD169-GFP; 10 µM) [%] | cellular uptake (intracellular fluorescence) (primary HFFs) |
| --- | --- | --- | --- | --- | --- | --- | --- | --- | --- | --- | --- | --- | --- | --- | --- | --- |
| C[C@H]1[C@H](OC(=O)CCC(=O)O)O[C@@H]2O[C@@]3(C)CC[C@H]4[C@H](C)CC[C@@H]1[C@@]24OO3 [Artesunic acid, reference compound] | 3.8 ± 0.4 | 82 ± 0.9 |  |  |  |  |  |  |  |  |  |  |  |  |  |  |
| Cc1ccc(-c2cc(-c3ccc(C)cc3)c3c(N)ncnc3c2C#N)cc1 [7b] | 9.5 ± 4.8 | > 100 | 89 | 90% and 87% and 92% | 89 | 91% and 86% and 89% and 90% | 87 | 98% and 91% and 76% and 82% | 89 | 81% and 82% and 95% and 98% | 62 | 65% and 63% and 64% and 56% | 53 | 55% and 51% and 56% |  |  |
| C[C@@H]1CC[C@H]2[C@@H](C)C(=O)O[C@@H]3O[C@@]4(C)CC[C@@H]1[C@]32OO4 [Artemisinin, reference compound] | > 10 | > 100 |  |  |  |  |  |  |  |  |  |  |  |  |  |  |
| N#Cc1c(-c2ccc(F)cc2)cc(-c2ccc(F)cc2)c2c(N)ncnc12 [7g] | 4.9 ± 0.2 | > 100 |  |  |  |  | 93 | 82% and 87% and 122% and 80% | 94 | 94% and 96% and 90% | 79 | 73% and 94% and 71% and 79% | 62 | 61% and 63% and 60% and 66% | 10 | efficient cellular uptake |
| Nc1nc(O)c2ncn(COC(CO)CO)c2n1 [Ganciclovir, reference compound] | 2.6 ± 0.5 | > 100 |  |  |  |  |  |  |  |  |  |  |  |  |  |  |
